Article PMC9506420, “Biological Evaluation of 3-Azaspiro[Bicyclo[3.1.0]Hexane-2,5′-Pyrimidines] as Potential Antitumor Agents” (International Journal of Molecular Sciences, 2022)

Assays:
CT26 tumor = experiment: In vivo evaluation in CT26 tumor-bearing Balb/C mice; settings: for death of experimental animals by the end of the observation period: n = 7 per group, single i.p. 300 μL of 3 μM suspension, 10 days, control group one animal; for autopsy finding in the abdominal cavity (agglomerates of injected material): autopsy at end of experiment, diameter of up to 1 mm
Experimental: In vivo studies were performed using CT26 tumor-bearing Balb/C mice. After the average tumor volume reached approximately 270 mm^3, the mice were injected intraperitoneally with 300 μL of 3 μM suspension of compounds 4d, 4e, 4f, and 4i in 10% aq. DMSO solution. Mice in the control group were injected with 300 μL of 10% aq. DMSO solution. Observation of the animals continued for 10 days, with the measurement of tumor sizes two times a week.
All animals were bred and maintained in specific pathogen-free facilities in accordance with the Rus-LASA and FELASA guidelines. This study complied with all relevant ethical regulations for animal testing and research and received ethical approval from the Almazov National Medical Research Centre (protocol No. 21-02, dated 26 March 2021). Animal experiments were carried out in accordance with the principles of humane treatment of animals, regulated by requirements of Council of Europe 2006; European Convention for the Protection of Vertebrate Animals Used for Experimental and other Scientific Purposes (ETS No. 123); the European Parliament and the Council of the European Union 2010; Directive 2010/63/EU of the European Parliament and of the Council of 22 September 2010 on the Protection of Animals Used for Scientific Purposes; and FELASA guidelines. Male, 20–22 g, SPF Balb/C mice (Pushchino, Moscow region, Russian Federation) were used throughout. Animals were maintained at 22 ± 2 °C and relative humidity 50 ± 10% with 12 h light/dark cycle. All mice received water and food ad libitum. Animals were checked daily by the veterinarian, and their state of health was monitored continuously. Animal body weight was recorded every three days (GX-600 Precision Balance, A&D Weighing, San Jose, CA, USA).
The greatest transverse diameter (width) and the greatest longitudinal diameter (length) of a tumor were determined with a Vernier mechanical caliper. The tumor volume (V) was calculated using the following formula: V = length × width 2/2000 [50]. Mice were inoculated subcutaneously in the right flank, with 2 × 10^6 CT26 cells per mouse in PBS (Corning, Glendale, AZ, USA). Ten days later, when the average tumor volume reached […], the mice were randomized into groups (n = 7 per group). An amount of 300 μL of 3 μM suspension of compounds 4d, 4e, 4f, and 4i in 10% aq. DMSO solution was injected intraperitoneally at once. The control group was injected with 10% aq. DMSO solution only. The tumor volumes were monitored as described above, along with body weight. Mice were euthanized when the subcutaneous tumor reached a volume of […].

CT26 cells = experiment: Actin cytoskeleton staining (rhodamine-phalloidin, confocal microscopy), CT26; type: cell-based, mouse; settings: CT26, 5 μg/mL, 24 h; for percentage of cells with normal stress fibers (C): control 64%
Experimental: (§1) Therefore, in the current study, the actin cytoskeleton structure of HeLa, CT26, and Vero cells was analyzed, after the impact of compounds 4a–i, by the presence of filopodia-like protrusions and the availability of stress fibers (Figure 14, Figure 15 and Figure 16). […] HeLa cells were more sensitive to the action of tested products, compared to CT26 and Vero cells.
(§2) Cells were seeded onto Petri dishes with cover slips at a density of 2 × 10^5 cells per dish and incubated for 24 h. After that, cells were treated with compounds 4d, 4e, 4f, 4h, and 4i (5 μg/mL) for 24 h. The medium was removed, and cells were fixed with 4% paraformaldehyde (Sigma-Aldrich, St. Louis, MO, USA), washed three times with PBS, and permeabilized with 0.3% Triton-X100 (Sigma-Aldrich, St. Louis, MO, USA). The cells were rinsed three times with PBS. Actin filaments (microfilaments) were stained at 37 °C for 15 min with rhodamine-phalloidin (Invitrogen, Carlsbad, CA, USA). The samples were rinsed three times with PBS, followed by embedding in Fluoroshield medium (Sigma-Aldrich, St. Louis, MO, USA). Cells were imaged using an Axio Observer Z1 confocal microscope (Carl Zeiss MicroImaging GmbH, Jena, Germany). In each experiment, at least 30 cells were imaged. Images were analyzed by a pathologist, blinded to the treatment mode used for each group, using ImageJ software.

HeLa cells = experiment: Actin cytoskeleton staining (rhodamine-phalloidin, confocal microscopy), HeLa; type: cell-based, human; settings: 5 μg/mL, 24 h
Experimental: as §1, §2

## CCCC[C@@H]1NC2(C(=O)NC(=O)NC2=O)[C@]2(c3ccccc3)[C@@H](c3ccccc3)[C@]12c1ccccc1 [Compound 4e]
CT26 tumor
  death of experimental animals by the end of the observation period: two
CT26 tumor; single i.p. injection
  autopsy finding in the abdominal cavity (agglomerates of injected material): persistent, rounded, dense agglomerates of white or yellowish-white foreign material
CT26 tumor; single i.p. injection, autopsy of abdominal organs
  macroscopic signs of acute toxicity at autopsy: No signs of acute intoxication

## CCC[C@@H]1NC2(C(=O)NC(=O)NC2=O)[C@]2(c3ccccc3)[C@@H](c3ccccc3)[C@]12c1ccccc1 [Compound 4d]
CT26 tumor
  death of experimental animals by the end of the observation period: No deaths
CT26 tumor; single i.p. injection
  autopsy finding in the abdominal cavity (agglomerates of injected material): persistent, rounded, dense agglomerates of white or yellowish-white foreign material

## O=C1NC(=O)C2(N[C@@H](c3ccccc3)[C@@]3(c4ccccc4)[C@H](c4ccccc4)[C@@]23c2ccccc2)C(=O)N1 [Compound 4i]
CT26 cells; control 43%
  percentage of cells with filopodia-like deformations (A): 38%
CT26 cells
  percentage of cells with normal stress fibers (C): 38%
CT26 tumor
  death of experimental animals by the end of the observation period: three
CT26 tumor; single i.p. injection
  autopsy finding in the abdominal cavity (agglomerates of injected material): persistent, rounded, dense agglomerates of white or yellowish-white foreign material

## CSCC[C@@H]1NC2(C(=O)NC(=O)NC2=O)[C@]2(c3ccccc3)[C@@H](c3ccccc3)[C@]12c1ccccc1 [Compound 4h]
CT26 cells
  percentage of cells with normal stress fibers (C): 36%

## CC(C)C[C@@H]1NC2(C(=O)NC(=O)NC2=O)[C@]2(c3ccccc3)[C@@H](c3ccccc3)[C@]12c1ccccc1 [Compound 4f]
HeLa cells; control 80%
  percentage of cells with normal stress fibers (C): 10%
HeLa cells; control 91%
  percentage of cells with filopodia-like deformations (A): 35%
CT26 tumor
  death of experimental animals by the end of the observation period: one
